The values that follow are results of earlier work, collected in patent publication US20240228797A1, “LIQUID REPELLENT SLIPPERY SURFACES AND METHODS OF PREPARATION THEREOF” (priority 2021, published 2024).

Consider `CC(C)CCCC(C)CCCC(C)CCCCC(C)CCCC(C)CCCC(C)C` (stereo not shown) [Squalane, squalane], for which the water solubility entry is “extremely low water solubility”.
